The target in experiment [1] is T1, Vascular endothelial growth factor receptor 2 (Homo sapiens, UniProt P35968). In words: Binding affinity to VEGFR2 in isolated human glioblastoma at 0.18 nM after 60 mins by phosphor image autoradiographic analysis in presence of ZM-323881. To be noted: tested as the 18F-labelled form.
In experiment [2] the target is T1, Vascular endothelial growth factor receptor 2. In words: Binding affinity to VEGFR2 in isolated human glioblastoma at 0.18 nM after 60 mins by phosphor image autoradiographic analysis in presence of (R)-PAQ. To be noted: tested as the 18F-labelled form.
Experiment [3] shares this target. In words: Inhibition of human VEGFR2 by fluorescence-based electrophoretic mobility-shift assay.
Experiment [4] shares this target. In words: Binding affinity to VEGFR2 in isolated human glioblastoma at 0.18 nM after 60 mins by phosphor image autoradiographic analysis. The note with it: tested as the 18F-labelled form.

The structures appear in SMILES notation. Activity calls are given as the source filed them. No cut-off for these calls is given here.

T1 sequence (P35968 whole entry): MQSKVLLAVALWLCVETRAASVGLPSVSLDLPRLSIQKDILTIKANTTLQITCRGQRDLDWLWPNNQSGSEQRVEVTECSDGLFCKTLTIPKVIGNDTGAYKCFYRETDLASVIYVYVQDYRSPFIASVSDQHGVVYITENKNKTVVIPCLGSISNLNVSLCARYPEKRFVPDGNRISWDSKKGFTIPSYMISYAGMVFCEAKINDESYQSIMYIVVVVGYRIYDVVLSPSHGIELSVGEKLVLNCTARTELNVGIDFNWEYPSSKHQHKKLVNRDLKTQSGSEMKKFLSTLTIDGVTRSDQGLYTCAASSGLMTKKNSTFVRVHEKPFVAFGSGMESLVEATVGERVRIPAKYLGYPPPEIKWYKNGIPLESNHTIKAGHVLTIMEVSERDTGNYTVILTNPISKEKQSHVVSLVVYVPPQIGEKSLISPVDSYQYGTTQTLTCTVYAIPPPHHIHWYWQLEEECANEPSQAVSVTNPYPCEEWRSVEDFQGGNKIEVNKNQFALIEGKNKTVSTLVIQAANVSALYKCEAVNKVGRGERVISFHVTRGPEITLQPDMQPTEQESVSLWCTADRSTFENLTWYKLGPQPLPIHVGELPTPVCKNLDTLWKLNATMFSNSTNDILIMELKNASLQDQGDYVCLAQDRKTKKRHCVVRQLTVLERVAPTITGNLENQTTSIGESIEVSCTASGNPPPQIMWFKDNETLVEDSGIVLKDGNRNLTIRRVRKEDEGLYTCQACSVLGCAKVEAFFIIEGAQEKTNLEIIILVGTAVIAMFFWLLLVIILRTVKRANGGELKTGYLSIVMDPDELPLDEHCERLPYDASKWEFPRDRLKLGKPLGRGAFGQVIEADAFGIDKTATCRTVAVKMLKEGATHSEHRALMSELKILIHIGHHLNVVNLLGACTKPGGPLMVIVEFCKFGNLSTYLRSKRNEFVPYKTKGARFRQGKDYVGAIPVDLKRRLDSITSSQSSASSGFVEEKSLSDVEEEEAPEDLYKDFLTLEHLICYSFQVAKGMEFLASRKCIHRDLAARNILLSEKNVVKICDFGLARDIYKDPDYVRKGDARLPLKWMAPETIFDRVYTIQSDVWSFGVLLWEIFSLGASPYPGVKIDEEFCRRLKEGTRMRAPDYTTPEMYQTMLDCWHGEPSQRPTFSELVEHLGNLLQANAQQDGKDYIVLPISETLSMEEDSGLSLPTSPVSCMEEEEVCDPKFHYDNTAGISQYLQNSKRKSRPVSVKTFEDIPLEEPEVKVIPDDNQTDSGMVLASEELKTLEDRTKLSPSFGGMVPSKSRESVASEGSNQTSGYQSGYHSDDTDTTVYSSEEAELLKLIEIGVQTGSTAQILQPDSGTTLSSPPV

The term IC50 denotes the point on the concentration scale where inhibition reaches its midpoint. On to `COc1cc2c(Nc3ccc(Br)cc3F)ncnc2cc1OC[C@@H]1CCCN(CCF)C1`, for which the outcome in experiment [1] and in experiment [2] was inactive. Also, the IC50 in experiment [3] worked out at 40 nM. For the same compound, the outcome in experiment [4] was Active.

The record behind these values is ChEMBL document CHEMBL2057176, “Synthesis and in vitro evaluation of [18F](R)-FEPAQ: a potential PET ligand for VEGFR2” (Bioorg Med Chem Lett, 2012).
